≈ marks a conversion by molar mass, not a printed value. Counter-ions that a name gives are not always drawn. Like-named read-outs stand apart in the source and are kept apart here.
Columns and labels:
Format in all cases: cell-based
[1] = test system: Acinetobacter calcoaceticus Ac 54; assay: MIC, Experiment 1; details: AC54, A. calcoaceticus Ac 54, Gram -, read-out: Min. inhib. concentr. (MIC)
Summary of the method: (§1)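 MIC was determined by the Japan Society of Chemotherapy agar dilution method, working from 1000 μg/ml standard solutions (DMSO or water stocks). S. pneumoniae was precultured in brain heart infusion broth and tested on heart infusion agar with 5% defibrinated horse blood. Other strains used sensitivity test broth and sensitivity test agar.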

Bacillus cereus IAM 1029 = assay: MIC, Experiment 1; details: IAM1029, B. cereus IAM 1029, Gram +, read-out: Min. inhib. concentr. (MIC)
Summary of the method: (§2)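 Minimum inhibitory concentrations come from the Japan Society of Chemotherapy procedure. For streptococci, plates were heart infusion agar with 5% defibrinated horse blood after brain heart infusion broth preculture. Non-streptococcal strains were grown in sensitivity test broth and plated on sensitivity test agar.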

[2] = test system: Bacillus subtilis ATCC 6633; assay: MIC, Experiment 1; details: ATCC6633, B. subtilis ATCC 6633, Gram +, read-out: Min. inhib. concentr. (MIC)
Summary of the method: (§3)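 Stocks: 5000 μg/ml in DMSO or sterile distilled water; standard: 1000 μg/ml after water dilution. Method: Japan Society of Chemotherapy.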

Enterobacter cloacae 963 = assay: MIC, Experiment 1; details: E. cloacae 963, Gram -, read-out: Min. inhib. concentr. (MIC)
Summary of the method: as §1

[3] = test system: Escherichia coli NIHJ JC-2; assay: MIC, Experiment 1; details: NIHJJC2, E. coli NIHJ JC-2, Gram -, read-out: Min. inhib. concentr. (MIC)
Summary of the method: as §1

[4] = test system: Klebsiella pneumoniae PCI-602; assay: MIC, Experiment 1; details: PCI602, K. pneumoniae PCI-602, Gram -, read-out: Min. inhib. concentr. (MIC)
Summary of the method: as §1

[5] = test system: Micrococcus luteus ATCC 9341; assay: MIC, Experiment 1; details: ATCC9341, M. luteus ATCC 9341, Gram +, read-out: Min. inhib. concentr. (MIC)
Summary of the method: as §1

[6] = test system: Proteus mirabilis IFO 3849; assay: MIC, Experiment 1; details: IFO3849, P. mirabilis IFO 3849, Gram -, read-out: Min. inhib. concentr. (MIC)
Summary of the method: as §1

[7] = test system: Pseudomonas aeruginosa NCTC 10490; assay: MIC, Experiment 1; details: NCTC10490, P. aeruginosa NCTC 10490, Gram -, read-out: Min. inhib. concentr. (MIC)
Summary of the method: as §1

[8] = test system: Staphylococcus aureus ATCC 9144; assay: MIC, Experiment 1; details: ATCC9144, S. aureus ATCC 9144, Gram +, read-out: Min. inhib. concentr. (MIC)
Summary of the method: as §2

[9] = test system: Staphylococcus aureus Cowan I (IID 975); assay: MIC, Experiment 1; details: IID975, S. aureus Cowan I (IID 975), Gram +, read-out: Min. inhib. concentr. (MIC)
Summary of the method: as §2

[10] = test system: Staphylococcus aureus FDA 209P JC-1; assay: MIC, Experiment 1; details: FDA209P, S. aureus FDA 209P JC-1, Gram +, read-out: Min. inhib. concentr. (MIC)
Summary of the method: as §2

[11] = test system: Staphylococcus aureus FDA 243; assay: MIC, Experiment 1; details: FDA243, S. aureus FDA 243, Gram +, read-out: Min. inhib. concentr. (MIC)
Summary of the method: as §2

[12] = test system: Staphylococcus aureus IID 803; assay: MIC, Experiment 1; details: IID803, S. aureus IID 803, Gram +, read-out: Min. inhib. concentr. (MIC)
Summary of the method: as §2

[13] = test system: Staphylococcus aureus MS-353; assay: MIC, Experiment 1; details: MS353, S. aureus MS-353, Gram +, read-out: Min. inhib. concentr. (MIC)
Summary of the method: as §2

[14] = test system: Staphylococcus aureus Terajima (IID 670); assay: MIC, Experiment 1; details: IID670, S. aureus Terajima (IID 670), Gram +, read-out: Min. inhib. concentr. (MIC)
Summary of the method: as §2

[15] = test system: Streptococcus pneumoniae IID 552; assay: MIC, Experiment 1; details: IID552, S. pneumoniae IID 552, Gram +, agar with 5% defibrinated horse blood, read-out: Min. inhib. concentr. (MIC)
Summary of the method: as §2

[16] = test system: Streptococcus pneumoniae IID 554; assay: MIC, Experiment 1; details: IID554, S. pneumoniae IID 554, Gram +, agar with 5% defibrinated horse blood, read-out: Min. inhib. concentr. (MIC)
Summary of the method: as §2

[17] = test system: Streptococcus pyogenes Cook; assay: MIC, Experiment 1; details: S. pyogenes Cook, Gram +, agar with 5% defibrinated horse blood, read-out: Min. inhib. concentr. (MIC)
Summary of the method: as §3

[18] = test system: Streptococcus pyogenes Su; assay: MIC, Experiment 1; details: S. pyogenes Su, Gram +, agar with 5% defibrinated horse blood, read-out: Min. inhib. concentr. (MIC)
Summary of the method: as §3

[19] = test system: Streptococcus pyogenes Sv; assay: MIC, Experiment 1; details: S. pyogenes Sv, Gram +, agar with 5% defibrinated horse blood, read-out: Min. inhib. concentr. (MIC)
Summary of the method: as §3

[20] = test system: clinically isolated Staphylococcus aureus; assay: In vitro antibacterial activity against clinical isolates, Experiment 2; details: for MIC50: 50% of strains, read-out: MIC50
Summary of the method: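 Clinical isolates collected Nov. 1988 to Jun. 1989 were precultured in sensitivity test broth. MIC was determined on sensitivity test agar. Compound standard solution was 1000 μg/ml (stock) in sterilized distilled water.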

[21] = 25 clinical strains S. aureus incl. 16 methicillin resistant
[22] = 25 clinical strains S. aureus incl. 16 methicillin resistant, 90% of strains, read-out: MIC90

| SMILES | MIC [1] [µg/mL] | MIC (Bacillus cereus IAM 1029) [µg/mL] | MIC [2] [µg/mL] | MIC (Enterobacter cloacae 963) [µg/mL] | MIC [3] [µg/mL] | MIC [4] [µg/mL] | MIC [5] [µg/mL] | MIC [6] [µg/mL] | MIC [7] [µg/mL] | MIC [8] [µg/mL] | MIC [9] [µg/mL] | MIC [10] [µg/mL] | MIC [11] [µg/mL] | MIC [12] [µg/mL] | MIC [13] [µg/mL] | MIC [14] [µg/mL] | MIC [15] [µg/mL] | MIC [16] [µg/mL] | MIC [17] [µg/mL] | MIC [18] [µg/mL] | also measured |
| --- | --- | --- | --- | --- | --- | --- | --- | --- | --- | --- | --- | --- | --- | --- | --- | --- | --- | --- | --- | --- | --- |
| CC1CN(c2c(F)cc3c(=O)c(C(=O)O)c4scc5n4c3c2N(C)C5)CCO1 (stereo not drawn) [Compound (A), 9,1-(Methylimino)methano-7-fluoro-8-(2-methylmorpholino)-5-oxo-5H-thiazolo[3,2-a]quinoline-4-carboxylic acid] | ≤ 0.006 | 0.013 (≈ 0.0322 µM) | ≤ 0.006 | 0.2 (≈ 0.496 µM) | 0.1 (≈ 0.248 µM) | ≤ 0.006 | 0.1 (≈ 0.248 µM) | 0.2 (≈ 0.496 µM) | 0.39 (≈ 0.967 µM) | 0.013 (≈ 0.0322 µM) | 0.013 (≈ 0.0322 µM) | 0.013 (≈ 0.0322 µM) | ≤ 0.006 | ≤ 0.006 | 0.013 (≈ 0.0322 µM) | 0.013 (≈ 0.0322 µM) | 0.013 (≈ 0.0322 µM) | 0.05 (≈ 0.124 µM) | 0.025 (≈ 0.062 µM) | 0.025 (≈ 0.062 µM) | MIC [19]: 0.025 µg/mL (≈ 0.062 µM); MIC [20, 21]: 0.006 to 0.2 µg/mL (≈ 0.0149 to 0.496 µM); MIC50 [20, 21]: ≤ 0.006 µg/mL; MIC90 [20, 22]: 0.2 µg/mL (≈ 0.496 µM) |
| COC[C@@H]1CN(c2c(F)cc3c(=O)c(C(=O)O)c4scc5n4c3c2N(C)C5)CCO1 [Compound (O), 9,1-(Methylimino)methano-7-fluoro-8-[(2S)-2-methoxymethylmorpholino)-5-oxo-5H-thiazolo[3,2-a]quinoline-4-carboxylic acid] | 0.013 (≈ 0.03 µM) | 0.025 (≈ 0.0577 µM) | 0.013 (≈ 0.03 µM) | 0.78 (≈ 1.8 µM) | 0.2 (≈ 0.461 µM) | 0.013 (≈ 0.03 µM) | 0.1 (≈ 0.231 µM) | 0.78 (≈ 1.8 µM) | 0.78 (≈ 1.8 µM) | 0.025 (≈ 0.0577 µM) | ≤ 0.006 | 0.025 (≈ 0.0577 µM) | ≤ 0.006 | 0.013 (≈ 0.03 µM) | 0.013 (≈ 0.03 µM) | 0.025 (≈ 0.0577 µM) | 0.05 (≈ 0.115 µM) | 0.05 (≈ 0.115 µM) | 0.05 (≈ 0.115 µM) | 0.05 (≈ 0.115 µM) | MIC [19]: 0.05 µg/mL (≈ 0.115 µM); MIC90 [20]: 0.78 µg/mL (≈ 1.8 µM); MIC [20, 21]: 0.006 to 0.78 µg/mL (≈ 0.0138 to 1.8 µM); MIC50 [20, 21]: 0.013 µg/mL (≈ 0.03 µM) |
| CCOCC1CN(c2c(F)cc3c(=O)c(C(=O)O)c4scc5n4c3c2N(C)C5)CCO1 (stereo not drawn) [Compound (Q), 9,1-(Methylimino)methano-7-fluoro-8-(2-ethoxymethylmorpholino)-5-oxo-5H-thiazolo[3,2-a]quinoline-4-carboxylic acid] | 0.05 (≈ 0.112 µM) | 0.1 (≈ 0.223 µM) | 0.05 (≈ 0.112 µM) | 1.56 (≈ 3.49 µM) | 0.78 (≈ 1.74 µM) | 0.2 (≈ 0.447 µM) | 0.39 (≈ 0.872 µM) | 1.56 (≈ 3.49 µM) | 1.56 (≈ 3.49 µM) | 0.025 (≈ 0.0559 µM) | 0.05 (≈ 0.112 µM) | 0.1 (≈ 0.223 µM) | 0.05 (≈ 0.112 µM) | 0.05 (≈ 0.112 µM) | 0.1 (≈ 0.223 µM) | 0.1 (≈ 0.223 µM) | 0.39 (≈ 0.872 µM) | 0.39 (≈ 0.872 µM) | 0.2 (≈ 0.447 µM) | 0.2 (≈ 0.447 µM) | MIC [19]: 0.39 µg/mL (≈ 0.872 µM); MIC90 [20]: 0.78 µg/mL (≈ 1.74 µM); MIC [20, 21]: 0.006 to 0.78 µg/mL (≈ 0.0134 to 1.74 µM); MIC50 [20, 21]: 0.013 µg/mL (≈ 0.0291 µM) |
| COCC1CN(c2c(F)cc3c(=O)c(C(=O)O)c4scc5n4c3c2N(C)C5)CCN1C (stereo not drawn) [Compound (J), 9,1-(Methylimino)methano-7-fluoro-8-(3-methoxymethyl-4-methyl-1-piperazinyl)-5-oxo-5H-thiazolo[3,2-a]quinoline-4-carboxylic acid hydrochloride] | 0.1 | 0.1 | 0.05 | 0.39 | 0.39 | 0.05 | 0.39 | 1.56 | 1.56 | 0.1 | 0.05 | 0.05 | 0.05 | 0.1 | 0.1 | 0.1 | 0.05 | 0.1 | 0.1 | 0.1 | MIC [19]: 0.1 µg/mL; MIC [20, 21]: 0.05 to 6.25 µg/mL; MIC50 [20, 21]: 0.1 µg/mL; MIC90 [20, 22]: 3.13 µg/mL |
| CN1Cc2csc3c(C(=O)O)c(=O)c4cc(F)c(N5CCC(N(C)C)CC5)c1c4n23 [Compound (H), 9,1-(methylimino)methano-7-fluoro-8-(4-dimethylaminopiperidino)-5-oxo-5H-thiazolo[3,2-a]quinoline-4-carboxylic acid] | 0.1 (≈ 0.232 µM) | 0.05 (≈ 0.116 µM) | 0.05 (≈ 0.116 µM) | 0.39 (≈ 0.906 µM) | 0.2 (≈ 0.465 µM) | 0.025 (≈ 0.0581 µM) | 0.39 (≈ 0.906 µM) | 0.78 (≈ 1.81 µM) | 0.78 (≈ 1.81 µM) | 0.05 (≈ 0.116 µM) | 0.05 (≈ 0.116 µM) | 0.1 (≈ 0.232 µM) | 0.05 (≈ 0.116 µM) | 0.1 (≈ 0.232 µM) | 0.1 (≈ 0.232 µM) | 0.05 (≈ 0.116 µM) | 0.05 (≈ 0.116 µM) | 0.05 (≈ 0.116 µM) | 0.05 (≈ 0.116 µM) | 0.05 (≈ 0.116 µM) | MIC [19]: 0.05 µg/mL (≈ 0.116 µM); MIC [20, 21]: 0.05 to 3.13 µg/mL (≈ 0.116 to 7.27 µM); MIC50 [20, 21]: 0.1 µg/mL (≈ 0.232 µM); MIC90 [20, 22]: 3.13 µg/mL (≈ 7.27 µM) |
